As a reminder, the IC50 is the concentration that inhibits the measured activity by half.

The target in the experiment is FP receptor (Homo sapiens (Human), UniProt P43088). The experiment in a line: In vitro test of inhibition of human FP receptor activity (PGF2α-induced calcium flux in FP-expressing CHEM1 cells). As to conditions: PGF2α-induced (2 nM) calcium flux in FP-expressing CHEM1 cells; some as mean values from multiple determinations. It counts as cell-based. An excerpt: Table 1 below lists the IC50 values from this assay for individual working examples of the invention (some as mean values from multiple independent individual determinations): […]
FP receptor, sequence (P43088 whole entry): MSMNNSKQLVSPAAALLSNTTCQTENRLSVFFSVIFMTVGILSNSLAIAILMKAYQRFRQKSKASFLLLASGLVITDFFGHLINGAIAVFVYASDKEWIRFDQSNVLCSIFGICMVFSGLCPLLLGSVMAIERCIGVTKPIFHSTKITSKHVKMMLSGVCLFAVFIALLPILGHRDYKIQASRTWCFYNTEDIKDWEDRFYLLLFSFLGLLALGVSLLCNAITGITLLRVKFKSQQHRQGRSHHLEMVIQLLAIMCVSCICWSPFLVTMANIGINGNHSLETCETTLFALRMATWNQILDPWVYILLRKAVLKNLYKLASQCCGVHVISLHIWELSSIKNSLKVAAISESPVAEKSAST
In general terms: A change in cytosolic calcium serves as a functional read-out for many receptors and channels.
In the case of `O=C(O)CCC(CNC(=O)c1c(Cl)c(-c2ccccc2)nc2ccc(Br)cc12)c1ccccc1Cl` (racemic) [Example 212, (+/−)-5-{[(6-Bromo-3-chloro-2-phenylquinolin-4-yl)carbonyl]amino}-4-(2-chlorophenyl)pentanoic Acid], the IC50 turned out to be 6.6 nM. Turning to `O=C(O)CCC(CNC(=O)c1c(Cl)c(-c2ccccc2)nc2ccc(Br)cc12)c1ccccc1C(F)(F)F` (racemic) [Example 215, (+/−)-5-{[(6-Bromo-3-chloro-2-phenylquinolin-4-yl)carbonyl]amino}-4-[2-(trifluoromethyl)phenyl]pentanoic Acid], the IC50 was 5.4 nM. The result for `C#Cc1ccc2nc(-c3ccccc3)c(C)c(C(=O)NCC(CCC(=O)O)c3ccccc3Cl)c2c1` (racemic) [Example 218, (+/−)-4-(2-Chlorophenyl)-5-{[(6-ethynyl-3-methyl-2-phenylquinolin-4-yl)carbonyl]amino}pentanoic Acid] reads 13 nM; that for `O=C(O)CCC(CNC(=O)c1c(Cl)c(-c2ccccc2)nc2ccc(Br)cc12)c1c(F)ccc(F)c1Cl` (racemic) [Example 221, (+/−)-5-{[(6-Bromo-3-chloro-2-phenylquinolin-4-yl)carbonyl]amino}-4-(2-chloro-3,6-difluorophenyl)pentanoic Acid], 2.4 nM. The result for `Cc1c(-c2ccccc2)nc2ccc(Br)cc2c1C(=O)NCC(CCC(=O)O)c1ccccn1` (racemic) [Example 224, (+/−)-5-{[(6-Bromo-3-methyl-2-phenylquinolin-4-yl)carbonyl]amino}-4-(pyridin-2-yl)pentanoic Acid] reads 100 nM; that for `Cc1c(-c2ccccc2)nc2ccc(Br)cc2c1C(=O)NCC(CCC(=O)O)c1c(F)cccc1C(F)(F)F` (racemic) [Example 225, (+/−)-5-{[(6-Bromo-3-methyl-2-phenylquinolin-4-yl)carbonyl]amino}-4-[2-fluoro-6-(trifluoromethyl)phenyl]pentanoic Acid], 4.7 nM; that for `Cc1c(-c2ccccc2)nc2ccc(Br)cc2c1C(=O)NCC(CCC(=O)O)c1c(F)c(F)cc(F)c1F` (racemic) [Example 228, (+/−)-5-{[(6-Bromo-3-methyl-2-phenylquinolin-4-yl)carbonyl]amino}-4-(2,3,5,6-tetrafluorophenyl)pentanoic Acid], 4.2 nM. With `Cc1c(-c2ccccc2)nc2ccc(Br)cc2c1C(=O)NCC(CCC(=O)O)c1cc(F)cc(F)c1F` (racemic) [Example 231, (+/−)-5-{[(6-Bromo-3-methyl-2-phenylquinolin-4-yl)carbonyl]amino}-4-(2,3,5-trifluorophenyl)pentanoic Acid], the IC50 amounted to 22 nM. The result for `Cc1c(-c2ccccc2)nc2ccc(Br)cc2c1C(=O)NCC(CCC(=O)O)c1c(Cl)ccc(Cl)c1Cl` (racemic) [Example 234, (+/−)-5-{[(6-Bromo-3-methyl-2-phenylquinolin-4-yl)carbonyl]amino}-4-(2,3,6-trichlorophenyl)pentanoic Acid] reads 7.2 nM. Under `Cc1c(-c2ccccc2)nc2ccc(Br)cc2c1C(=O)NCC(C)(CCCC(=O)O)c1ccccc1Cl` (racemic) [Example 240, (+/−)-6-{[(6-Bromo-3-methyl-2-phenylquinolin-4-yl)carbonyl]amino}-5-(2-chlorophenyl)-5-methylhexanoic Acid] stands 24 nM; under `Cc1c(-c2ccccc2)nc2ccc(Br)cc2c1C(=O)NCC(C)(CCCC(=O)O)c1ccccc1` (racemic) [Example 243, (+/−)-6-{[(6-Bromo-3-methyl-2-phenylquinolin-4-yl)carbonyl]amino}-5-methyl-5-phenylhexanoic Acid], 31 nM; under `Cc1c(-c2ccccc2)nc2ccc(Br)cc2c1C(=O)NCC(C(=O)O)c1ccc(F)cc1` (single isomer, unassigned) [Example 11, 3-{[(6-Bromo-3-methyl-2-phenylquinolin-4-yl)carbonyl]amino}-2-(4-fluorophenyl)propanoic Acid], 470 nM. Take `Cc1c(-c2ccccc2)nc2ccc(Br)cc2c1C(=O)NCC(C(=O)O)c1ccc(F)cc1` (single isomer, unassigned) [Example 12, 3-{[(6-Bromo-3-methyl-2-phenylquinolin-4-yl)carbonyl]amino}-2-(4-fluorophenyl)propanoic Acid]: the IC50 is 180 nM.

As for `Cc1c(-c2ccccc2)nc2ccc(Br)cc2c1C(=O)NCC(C(=O)O)c1ccc2c(c1)OCO2` (single isomer, unassigned) [Example 24, 2-(1,3-Benzodioxol-5-yl)-3-{[(6-bromo-3-methyl-2-phenylquinolin-4-yl)carbonyl]amino}propanoic Acid], the IC50 worked out at 580 nM.

For the compound `Cc1c(-c2ccccc2)nc2ccc(Br)cc2c1C(=O)NCC(C(=O)O)c1ccc2c(c1)OCO2` (single isomer, unassigned) [Example 25, 2-(1,3-Benzodioxol-5-yl)-3-{[(6-bromo-3-methyl-2-phenylquinolin-4-yl)carbonyl]amino}propanoic Acid], the IC50 is > 1000 nM. For `Cc1c(-c2ccccc2)nc2ccc(Br)cc2c1C(=O)NCC(C)(C(=O)O)c1ncccc1Cl` (single isomer, unassigned) [Example 27, 3-{[(6-Bromo-3-methyl-2-phenylquinolin-4-yl)carbonyl]amino}-2-(3-chloropyridin-2-yl)-2-methylpropanoic Acid], the IC50 amounted to 53 nM. The result for `Cc1c(-c2ccccc2)nc2ccc(Br)cc2c1C(=O)NCC(C)(C(=O)O)c1ncccc1Cl` (single isomer, unassigned) [Example 28, 3-{[(6-Bromo-3-methyl-2-phenylquinolin-4-yl)carbonyl]amino}-2-(3-chloropyridin-2-yl)-2-methylpropanoic Acid] reads 100 nM; that for `Cc1c(-c2ccccc2)nc2ccc(Br)cc2c1C(=O)NCC(CC(=O)O)c1cccc(Cl)c1` (single isomer, unassigned) [Example 73, 4-{[(6-Bromo-3-methyl-2-phenylquinolin-4-yl)carbonyl]amino}-3-(3-chlorophenyl)butanoic Acid], 86 nM. Regarding `Cc1c(-c2ccccc2)nc2ccc(Br)cc2c1C(=O)NCC(CC(=O)O)c1cccc(Cl)c1` (single isomer, unassigned) [Example 74, 4-{[(6-Bromo-3-methyl-2-phenylquinolin-4-yl)carbonyl]amino}-3-(3-chlorophenyl)butanoic Acid], the IC50 is 79 nM. With `Cc1c(-c2ccccc2)nc2ccc(Br)cc2c1C(=O)NCC(CC(=O)O)c1c(Cl)cccc1Cl` (single isomer, unassigned) [Example 79, 4-{[(6-Bromo-3-methyl-2-phenylquinolin-4-yl)carbonyl]amino}-3-(2,6-dichlorophenyl)butanoic Acid], the half-inhibitory concentration (IC50) is 140 nM. The result for `Cc1c(-c2ccccc2)nc2ccc(Br)cc2c1C(=O)NCC(CC(=O)O)c1c(Cl)cccc1Cl` (single isomer, unassigned) [Example 80, 4-{[(6-Bromo-3-methyl-2-phenylquinolin-4-yl)carbonyl]amino}-3-(2,6-dichlorophenyl)butanoic Acid] reads 51 nM. Regarding `Cc1cccc(C(CNC(=O)c2c(C)c(-c3ccccc3)nc3ccc(Br)cc23)CC(=O)O)c1` (single isomer, unassigned) [Example 94, 4-{[(6-Bromo-3-methyl-2-phenylquinolin-4-yl)carbonyl]amino}-3-(3-methylphenyl)butanoic Acid], the IC50 came out at 96 nM.

For the compound `Cc1cccc(C(CNC(=O)c2c(C)c(-c3ccccc3)nc3ccc(Br)cc23)CC(=O)O)c1` (single isomer, unassigned) [Example 95, 4-{[(6-Bromo-3-methyl-2-phenylquinolin-4-yl)carbonyl]amino}-3-(3-methylphenyl)butanoic Acid], the IC50 is 84 nM. Take `Cc1c(-c2ccccc2)nc2ccc(Br)cc2c1C(=O)NCC(c1ccccc1Cl)C(C)(C)C(=O)O` (single isomer, unassigned) [Example 112, 4-{[(6-Bromo-3-methyl-2-phenylquinolin-4-yl)carbonyl]amino}-3-(2-chlorophenyl)-2,2-dimethylbutanoic Acid]: the IC50 came to 92 nM. Under `Cc1c(-c2ccccc2)nc2ccc(Br)cc2c1C(=O)NCC(c1ccccc1Cl)C(C)(C)C(=O)O` (single isomer, unassigned) [Example 113, 4-{[(6-Bromo-3-methyl-2-phenylquinolin-4-yl)carbonyl]amino}-3-(2-chlorophenyl)-2,2-dimethylbutanoic Acid] stands 62 nM; under `Cc1c(-c2ccccc2)nc2ccc(Br)cc2c1C(=O)NCC(c1ccccc1Cl)S(=O)(=O)CC(=O)O` (single isomer, unassigned) [Example 198, (+/−)-{[2-{[(6-Bromo-3-methyl-2-phenylquinolin-4-yl)carbonyl]amino}-1-(2-chlorophenyl)ethyl]sulfonyl}acetic Acid], 400 nM. On to `Cc1c(-c2ccccc2)nc2ccc(Br)cc2c1C(=O)NCC(c1ccccc1Cl)S(=O)(=O)CC(=O)O` (single isomer, unassigned) [Example 199, {[2-{[(6-Bromo-3-methyl-2-phenylquinolin-4-yl)carbonyl]amino}-1-(2-chlorophenyl)ethyl]sulfonyl}acetic Acid], for which the IC50 amounted to 25 nM. Under `Cc1c(-c2ccccc2)nc2ccc(Br)cc2c1C(=O)NCC(CCC(=O)O)c1cc(F)cc(F)c1F` (single isomer, unassigned) [Example 232, 5-{[(6-Bromo-3-methyl-2-phenylquinolin-4-yl)carbonyl]amino}-4-(2,3,5-trifluorophenyl)pentanoic Acid] stands 8.8 nM; under `Cc1c(-c2ccccc2)nc2ccc(Br)cc2c1C(=O)NCC(CCC(=O)O)c1cc(F)cc(F)c1F` (single isomer, unassigned) [Example 233, 5-{[(6-Bromo-3-methyl-2-phenylquinolin-4-yl)carbonyl]amino}-4-(2,3,5-trifluorophenyl)pentanoic Acid], 25 nM.

For the compound `Cc1c(-c2ccccc2)nc2ccc(Br)cc2c1C(=O)NCC(C(=O)O)c1ccccc1` (single isomer, unassigned; (+)) [Example 3, (+)-3-{[(6-Bromo-3-methyl-2-phenylquinolin-4-yl)carbonyl]amino}-2-phenylpropanoic Acid], the IC50 amounted to 270 nM.

The values above are taken from patent publication US11136296B2, “Substituted N-arylethyl-2-arylquinoline-4-carboxamides and use thereof” (Bayer Aktiengesellschaft, priority 2017, dated 2021).
